Values of other authors, collected in patent publication US20080248506A1, “Method of Monitoring Anti-Tumor Activity of an Hdac Inhibitor” (Pharmacyclics, Inc., priority 2004, published 2008).

Assays:
[1] = tested on: γ-H2AX
[2] = tested on: H2AX; conditions: myeloid leukemia cell lines (HL60, K562, MDS92L; n=3)

SMILES | γ-H2AX accumulation ([1]; compound by itself, no irradiation) | number of irradiated cells that express γ-H2AX foci ([1]; with irradiation) | H2AX phosphorylation [2]
Nc1ccccc1NC(=O)c1ccc(CNC(=O)OCc2cccnc2)cc1 [MS-275] | does not produce γ-H2AX accumulation | increase the number of irradiated cells that express γ-H2AX foci | –
CC(/C=C/C(=O)NO)=C\[C@@H](C)C(=O)c1ccc(N(C)C)cc1 [Trichostatin] | – | – | cause H2AX phosphorylation
